Data: PMC8202855, “Identification of novel hepatitis B virus therapeutic vaccine candidates derived from polymerase protein” (Aging (Albany NY), 2021)
Entries after “also recorded” stand apart in the source; their conditions may differ.

Key:
[1] = system: epitope-specific T cells from PBMCs of healthy donors; experiment: In vitro human IFN-γ ELISPOT assay of epitope-specific T cells; assay type: cell-based; settings: HLA-A0201-positive PBMCs of healthy donors cultured with peptide 50 μM and IL-2 100 U/ml, day 20; T cells 5x10^5/ml; versus PBS-induced control; 3 independent experiments
Experimental: In order to measure the ability of epitope-specific T cells to produce IFN-γ, the ELISPOT assay was performed according to the instructions of the kit (Invitrogen, Carlsbad, CA, USA). Epitope-specific T cells(5x10^5/ml) were added to plates. An automated ELISPOT plate reader was used to quantify IFN-γ release by counting the number of spots present.

T2 cells = experiment: In vitro cytotoxicity assay against T2 cells (LDH release); assay type: cell-based; settings: peptide-pulsed T2 cells 1×10^5/well, effector:target 10:1, 20:1, 40:1, 37° C, 5 hours, 3 independent experiments
Experimental: T2 cell is (transporter associated with antigen processing, TAP) deficient cell line. When T2 cell is cultured with different epitopes, the HLA-A0201 molecule on surface of T2 cell will bind to different epitopes, the epitope-HLA-A0201 complex can be recognized by epitope-specific T cells and corresponding T2 cell will be lysed. In order to determine the cytotoxic activity of epitope-specific T cells, we measured LDH release based on the instructions of a non-radioactive cytotoxicity assay kit (Promega, USA). Epitope-specific T cells served as effector cells, and T2 cells loaded with or without each peptide served as target cells. The ratios of effector cells versus target cells were set to 10:1, 20:1 and 40:1. The effector cells were co-cultured with target cells (1×10^5/well) at 37° C for 5 hours, and LDH release was measured.

HepG2.2.15 cells = experiment: In vitro cytotoxicity assay against HepG2.2.15 cells (LDH release); assay type: cell-based; settings: effector:target 20:1, 37° C, 12 hours, versus PBS-induced control, 3 independent experiments
Experimental: In order to determine the antiviral abilities of epitope-specific T-cells, we detect the cytotoxicity of epitope-specific T cells against HepG2.2.15 cell. […] The ratios of epitope-specific T-cells versus HepG2.2.15 cells were set to 5:1, 10:1, 20:1. The effector cells and target cells were incubated together in 96-well plates at 37° C for 12 hours, and each well was added to total volume of 200 ul. The cytotoxicity activity of epitope-specific T-cells was evaluated based on LDH release using a non-radio-active cytotoxicity assay kit (Promega, US). The percentage of lysis was calculated as formula: (experimental release- target cell spontaneous release- effector cell spontaneous release)/(target cell maximum release- target cell spontaneous release).

HBV-DNA = experiment: HBV gene expression assay: HBV-DNA (real-time fluorescence quantitative PCR); assay type: cell-based, Hepatitis B virus; settings: co-culture with HepG2.2.15 cells, effector:target 10:1, 72 hours, supernatant quantitative PCR; versus PBS group; 3 independent experiments
Experimental: (§1) To validate the ability of epitopes to induce and stimulate the epitope-specific T cells, we used PBMCs from the blood of healthy donors. […] PBMCs were obtained through centrifugation at a Ficoll-Paque density gradient and suspended in RPMI-1640 medium supplemented with 10% fetal bovine serum (FBS), 100 U/ml penicillin and 100 μM streptomycin. PBMCs were stained by FITC-conjugated anti-HLA-A2 mAb and analyzed by flow cytometry. HLA-A0201-positive PBMCs were used for the expansion of epitope-specific T cells. PBMCs were cultured with each peptide (50 μM) and recombinant interleukin 2 (100 U/ml; Sigma, USA). Half of the culture medium was replaced with fresh RPMI-1640 medium every 3 or 4 days. […]
(§2) The antiviral abilities of epitopes were also determined by HBV gene expression assay. […] The HBsAg concentration was detected by enzyme-linked immunosorbent assay (ELISA) according to the manufacturer’s protocol (Shanghai Siic Kehua Biotech Co., Ltd.). And the HBV-DNA concentration was detected by real-time fluorescence quantitative PCR according to the manufacturer’s protocol (Yaneng Bioscience (Shenzhen) Co., Ltd.). […] The inhibition ratios of HBsAg and HBV-DNA were calculated as the formula: (1- experimental group/ control group)×100%.

HBsAg = settings: co-culture with HepG2.2.15 cells, effector:target 10:1, 72 hours, supernatant ELISA; versus PBS group; 3 independent experiments
Experimental: as §1, §2

HLA-A0201 molecule = target: T1, HLA-A0201 molecule (Homo sapiens, UniProt P04439, D140Y/D185E/D98H/E176V/E277Q/G131W/G231S/I119V/I121R/I166T/I218V/L300P/L318F/N151K/N90K/P208A/P217A/Q86G/Q94H/R138H/R169H/T345S); experiment: Peptide binding assay on T2 cells (HLA-A0201, flow cytometry); settings: T2 cells 1×10^6/well, peptide 100 μM, 18 hours, 37° C; FITC anti-HLA-A2 mAb BB7.2, flow cytometry; FI = (MFI peptide - background MFI)/background MFI; FI > 1 = high affinity; one representative of 3 independent experiments
T1 construct: endogenous in cells; host or cells: T2 cells (TAP-deficient human cell line)
Experimental: To analyze the binding affinity between epitopes and the HLA-A0201 molecule, we performed a peptide binding assay according to our previous study [18]. Briefly, T2 cells (1×10^6/well) were incubated with peptides (100 μM) in 24-well plates for 18 hours at 37° C. T2 cells without peptides served as a background control. After being washed with phosphate buffer saline (PBS) three times, cells were stained with FITC-conjugated anti-HLA-A2 mAb BB7.2 and analyzed using a BD AccuriC6 flow cytometer (Becton Dickinson, Mountain View, CA, USA). The mean fluorescence index (MFI) was recorded [43]. We calculated the fluorescence index (FI) as follows: FI = (MFI with individual peptides - background MFI)/(background MFI).

| Sequence | IFN-γ secretion of epitope-specific T cells (ELISPOT, in words) [1] | Cytotoxic activity of epitope-specific T cells toward T2 cells (in words) (T2 cells) | Cytotoxic activity of epitope-specific T cells against HepG2.2.15 cells (in words) (HepG2.2.15 cells) | Elimination of HBV-DNA by epitope-specific T cells (in words) (HBV-DNA) | Inhibition of HBsAg expression by epitope-specific T cells (in words) (HBsAg) | Fluorescence index (FI) (HLA-A0201 molecule) |
| --- | --- | --- | --- | --- | --- | --- |
| GLLGFAAPF | more IFN-γ secretion than was measured in control (P<0.05) | higher cytotoxic activity toward T2 cells compared to T cells stimulated by other epitopes | higher cytotoxic activities against HepG2.2.15 cells compared to control group (P<0.05) | higher abilities to eliminate HBV-DNA compared to the PBS group (P<0.05) | higher activities to inhibit the expression of HBsAg compared to the PBS group (P<0.05) | – |
| RVTGGVFLV | lesser ability to induce epitope-specific T cells | lesser ability to induce epitope-specific T cells | higher cytotoxic activities against HepG2.2.15 cells compared to control group (P<0.05); also recorded: obvious weaker than the other two epitopes | – | – | – |
| HLPDRVHFA | – | – | – | – | – | 0.2920 |
| YVIGSWGTL | – | – | – | – | – | 0.8953 |
| HLYSHPIIL | more IFN-γ secretion than was measured in control (P<0.05) | higher cytotoxic activity toward T2 cells compared to T cells stimulated by other epitopes | higher cytotoxic activities against HepG2.2.15 cells compared to control group (P<0.05) | higher abilities to eliminate HBV-DNA compared to the PBS group (P<0.05) | higher activities to inhibit the expression of HBsAg compared to the PBS group (P<0.05) | – |
